The results in this text go back to US10111854B2, “Synthesis and use of amine-containing flavonoids as potent anti-leishmanial agents” (The Hong Kong Polytechnic University, priority 2014, dated 2018).

In data set [1] the test system is L. amazonensis LV78 promastigotes. In words: Anti-promastigote activity (MTS assay), L. amazonensis LV78. The data set is classed as cell-based. Particulars: Leishmania amazonensis, 72 hours. A digest of the protocol: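 Promastigotes (1×10^5 per well) in Schneider's medium pH 6.9 with 10% FBS, exposed to serial compound concentrations for 72 h at 27 °C. Viability by MTS/PMS reduction over 4 h, OD 490 nm; IC50 derived.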

A short description of data set [2]: Bioavailability study of flavonoid dimer 39, oral feeding vs i.v. Conditions: in 50% PEG, 30 minutes. It is filed as in vivo, Balb/c mice. The protocol: Amine-linked flavonoid dimers are disclosed in prior studies to be sparingly soluble in aqueous medium. Their poor oral bioavailability is confirmed by in vivo study in mice. […] Plasma concentration of 39 was determined 30 minutes after oral feeding or i.v. administration. […] Such low bioavailability precluded 39 from being used as an oral antileishmanial agent in the future.

The compound `O=c1cc(-c2ccc(OCCOCCN(Cc3ccccn3)Cc3ccccn3)cc2)oc2ccccc12` [FM09, 2-(4-(2-(2-(bis(pyridin-2-ylmethyl)amino)ethoxy)ethoxy)phenyl)-4H-chromen-4-one] displayed an IC50 in data set [1] of 1000 ± 300 nM.
In the case of `O=c1cc(-c2ccc(OCCOCCN(CCOCCOc3ccc(-c4cc(=O)c5ccccc5o4)cc3)Cc3ccncc3)cc2)oc2ccccc12` [compound 39], the “Plasma level after oral feeding relative to i.v. group” value in data set [2] is recorded as under 1%.
